Tests used:
Assay in all cases: Antitumor effects in PDX mouse model of TNBC
Format in all cases: in vivo
PDX TNBC Model CTG-0012 = details: PDX model CTG-0012; A 10 mg/kg SC BID 3 days on/4 off ×4; B 7.5 mg/kg PO BID×28; versus vehicle
Source text: (§1) Establish PDX tumor models from viable human tumor tissue and serially passage in immunocompromised female mice a limited number of times. Using tumor fragments harvested from donor host animals, perform unilateral subcutaneous implants from a specific passage of the PDX tumor model on the flanks of the experimental animals. When tumor volumes reach approximately 150-250 mm^3 in size, randomize the animals by treatment arm by randomization techniques well known in the art and place into their respective treatment groups using 1 animal per treatment group (3 animals in an untreated group). Formulate CHK1 inhibitor, 5-(5-(2-(3-aminopropoxy)-6-methoxyphenyl)-1H-pyrazol-3-ylamino)pyrazine-2-carbonitrile methanesulfonate hydrate, (Compound A) every 14 days in 20% captisol (dissolved in water) and administer subcutaneously twice daily at a dose of 10 mg/kg on days 1/2/3 of a weekly cycle for 4 weeks (SC, BID [3 days on/4 off]×4). Formulate the PI3K/mTOR dual inhibitor, 8-[5-(1-hydroxy-1-methylethyl)pyridin-3-yl]-1-[(2S)-2-methoxypropyl]-3-methyl-1,3-dihydro-2H-imidazo[4,5-c]quinolin-2-one, (Compound B) weekly in 1% (HEC)/0.25% Tween 80 (Polysorbate 80)/0.05% Dow-Corning Antifoam 1510-US and administer by oral gavage twice-daily for 28 days (PO, BID×28) at a dose of 7.5 mg/kg. Dose combination treatment animals with both compounds according to the schedule described above for monotherapy, and dose vehicle treatment animals with vehicle according to the schedule for Compound B.
(§2) Test the combination of Compound A and Compound B, as well as their respective monotherapies, in 40 PDX models (Table 1) of TNBC. Assess antitumor efficacy of the treatment groups by measuring tumor volume via caliper measurements twice a week during the course of the study. Measure body weight twice weekly during the course of the study as a general indicator of tolerability.
(§3) Capture tumor size and body weight twice per week. Estimate tumor volume (V) by using the formula: V=(π/6)×L×W^2 where L=larger of measured diameter and W=smaller perpendicular diameter. Calculate relative tumor volume using the tumor volume measurement taken nearest to the last day of dosing for each animal (T), divided by the baseline tumor volume for that animal (T0), which is the volume recorded on or just prior to the first day of dosing, Y=T/T0. Calculate % ΔT/ΔC values using the formula % ΔT/ΔC=100(YT−1)/(YC−1), whereby YT or YC=geometric mean relative volume of the compound treated group or the control group, respectively. Tumor growth inhibition is observed in those instances where the calculated values for % ΔT/ΔC are less than 100% whereby greater inhibition results in smaller % ΔT/ΔC values. If ΔT<0, then a tumor regression value is calculated instead of % ΔT/ΔC whereby % Regression=100(YT−1). Note that negative values indicate regression. We collectively refer to % ΔT/ΔC and % Regression as % Response.
(§4) Examine relative tumor volume (final volume divided by baseline volume) on the last day of treatment or the last day on which data from all three treatment groups and vehicle is available, if it is earlier than the last day of treatment and at least 14 days after baseline. Expected additive relative volume is determined using the Bliss method (Bliss, C. I., Ann Appl Biol, 1939; 26(3):585-615). Specifically, denoting Y=relative volume, YExp=(Y1*Y2)/YV, where YExp=expected additive relative volume, Y1 and Y2 are the relative volumes in the single agent groups (Compound A and Compound B), and YV is the relative volume in the vehicle group. A range of additivity is defined around the expected additive relative volume via upper and lower limits as follows:
(§5) Yupper=max(2*YExp,YExp+0.2)
(§6) Ylower=min(YExp/2,YExp−0.2)
(§7) The upper limit of the range is the larger of 2-fold above or 20% above the expected additive relative volume, and the lower limit is the smaller of 2-fold below or 20% below the expected additive relative volume. […]

PDX TNBC Model CTG-0869 = details: PDX model CTG-0869; A 10 mg/kg SC BID 3 days on/4 off ×4; B 7.5 mg/kg PO BID×28; versus vehicle
Source text: as §1, §2, §3, §4, §5, §6, §7

PDX TNBC Model CTG-1167 = details: PDX model CTG-1167; A 10 mg/kg SC BID 3 days on/4 off ×4; B 7.5 mg/kg PO BID×28; versus vehicle
Source text: as §1, §2, §3, §4, §5, §6, §7

PDX TNBC Model CTG-1242 = details: PDX model CTG-1242; A 10 mg/kg SC BID 3 days on/4 off ×4; B 7.5 mg/kg PO BID×28; versus vehicle
Source text: as §1, §2, §3, §4, §5, §6, §7

PDX TNBC Model CTG-1408 = details: PDX model CTG-1408; A 10 mg/kg SC BID 3 days on/4 off ×4; B 7.5 mg/kg PO BID×28; versus vehicle
Source text: as §1, §2, §3, §4, §5, §6, §7

PDX TNBC Model CTG-1453 = details: PDX model CTG-1453; A 10 mg/kg SC BID 3 days on/4 off ×4; B 7.5 mg/kg PO BID×28; versus vehicle
Source text: as §1, §2, §3, §4, §5, §6, §7

PDX TNBC Model CTG-1520 = details: PDX model CTG-1520; A 10 mg/kg SC BID 3 days on/4 off ×4; B 7.5 mg/kg PO BID×28; versus vehicle
Source text: as §1, §2, §3, §4, §5, §6, §7

PDX TNBC Model MAXF 574 = details: PDX model MAXF 574; A 10 mg/kg SC BID 3 days on/4 off ×4; B 7.5 mg/kg PO BID×28; versus vehicle
Source text: as §1, §2, §3, §4, §5, §6, §7

PDX TNBC Model MAXF 583 = details: PDX model MAXF 583; A 10 mg/kg SC BID 3 days on/4 off ×4; B 7.5 mg/kg PO BID×28; versus vehicle
Source text: as §1, §2, §3, §4, §5, §6, §7

PDX TNBC Model MAXF MX1 = details: A 10 mg/kg SC BID 3 days on/4 off ×4, B 7.5 mg/kg PO BID×28, versus vehicle
Source text: as §1, §2, §3, §4, §5, §6, §7

PDX TNBC Model ST2057 = details: A 10 mg/kg SC BID 3 days on/4 off ×4, B 7.5 mg/kg PO BID×28, versus vehicle
Source text: as §1, §2, §3, §4, §5, §6, §7

PDX TNBC Model ST575 = details: A 10 mg/kg SC BID 3 days on/4 off ×4, B 7.5 mg/kg PO BID×28, versus vehicle
Source text: as §1, §2, §3, §4, §5, §6, §7

PDX TNBC Model ST848 = details: A 10 mg/kg SC BID 3 days on/4 off ×4, B 7.5 mg/kg PO BID×28, versus vehicle
Source text: as §1, §2, §3, §4, §5, §6, §7

Structure (SMILES)	% Rsp. (% ΔT/ΔC or % Regression) (PDX TNBC Model CTG-0012) [%]	% Rsp. (% ΔT/ΔC or % Regression) (PDX TNBC Model CTG-0869) [%]	% Rsp. (% ΔT/ΔC or % Regression) (PDX TNBC Model CTG-1167) [%]	% Rsp. (% ΔT/ΔC or % Regression) (PDX TNBC Model CTG-1242) [%]	% Rsp. (% ΔT/ΔC or % Regression) (PDX TNBC Model CTG-1408) [%]	% Rsp. (% ΔT/ΔC or % Regression) (PDX TNBC Model CTG-1453) [%]	% Rsp. (% ΔT/ΔC or % Regression) (PDX TNBC Model CTG-1520) [%]	% Rsp. (% ΔT/ΔC or % Regression) (PDX TNBC Model MAXF 574) [%]	% Rsp. (% ΔT/ΔC or % Regression) (PDX TNBC Model MAXF 583) [%]	% Rsp. (% ΔT/ΔC or % Regression) (PDX TNBC Model MAXF MX1) [%]	% Rsp. (% ΔT/ΔC or % Regression) (PDX TNBC Model ST2057) [%]	% Rsp. (% ΔT/ΔC or % Regression) (PDX TNBC Model ST575) [%]	% Rsp. (% ΔT/ΔC or % Regression) (PDX TNBC Model ST848) [%]
COc1cccc(OCCCN)c1-c1cc(Nc2cnc(C#N)cn2)n[nH]1.CS(=O)(=O)O [Compound A, 5-(5-(2-(3-aminopropoxy)-6-methoxyphenyl)-1H-pyrazol-3-ylamino)pyrazine-2-carbonitrile methanesulfonate hydrate]	33.4	52.6	62.3	66.8	11.1	2.3	49.9	22.9	9.6	126.1	44.8	−87.5	−50.0
CO[C@@H](C)Cn1c(=O)n(C)c2cnc3ccc(-c4cncc(C(C)(C)O)c4)cc3c21 [Compound B, 8-[5-(1-hydroxy-1-methylethyl)pyridin-3-yl]-1-[(2S)-2-methoxypropyl]-3-methyl-1,3-dihydro-2H-imidazo[4,5-c]quinolin-2-one]	49.0	64.9	65.8	107.3	27.5	−6.9	61.2	59.4	121.1	163.0	26.9	51.3	24.6
